{"source": "patent US20210222225A1", "about": "“Medium for Disk Diffusion Method to Evaluate Antibiotic Sensitivity” (priority 2018, published 2021)", "key": {"ABA, KPN and PAE strains": {"tested_on": "ABA, KPN and PAE strains", "test": "Growth of strain on guanidine hydrochloride-containing medium", "assay_type": "cell-based", "conditions": "guanidine hydrochloride 5 to 50 μg/ml; agar 5.1 g/L", "quoted_text": "A concentration of agar particles (BD Diagnostic, Sparks, Md., USA) in Mueller-Hinton broth medium (BD Diagnostic) was adjusted to 5.1 g/L, which is 30% of 17 g/L, and guanidine hydrochloride was added to a concentration of 500 μg/ml, 50 μg/ml, or 5 μg/ml. Then, solidification was performed. On a surface of each medium thus prepared was evenly inoculated each of colistin-susceptible (S) or -resistant (R) Acinetobacter baumannii (ABA) strain, colistin-susceptible (S) or -resistant (R) Klebsiella pnemoniae (KPN) strain, and colistin-susceptible (S) or -resistant (R) Pseudomonas aeruginosa (PAE) strain, and a colistin disk was placed thereon."}, "PAE ATCC 27853": {"tested_on": "PAE ATCC 27853", "test": "Growth of strain on protamine-containing medium, PAE", "assay_type": "cell-based, Pseudomonas aeruginosa", "method": "(§1) As in Example 1, a concentration of agar particles (BD Diagnostic, Sparks, Md., USA) in Mueller-Hinton broth medium (BD Diagnostic) was adjusted to 17 g/L or 5.1 g/L that is 30% of 17 g/L. To select a concentration of protamine, which can enhance diffusion of colistin from a disk without interfering with bacterial growth, while using the protamine at various concentrations, protamine (Sigma-Aldrich, St Louis, Mo., USA) was added to the medium at concentrations of 1 mg/ml, 700 μg/ml, 400 μg/ml, 300 μg/ml, 200 μg/ml, 150 μg/ml, 100 μg/ml, and 50 μg/ml. Each medium thus modified was solidified. Then, on a surface of each medium was evenly inoculated each of colistin-susceptible (S) or -resistant (R) Acinetobacter calcoaceticus-baumannii complex (ACB) strain, Pseudomonas aeruginosa ATCC27853 strain, and mcr-1-harboring Enterobacter aerogenes strain, and a colistin disk was placed thereon. Then, it was determined whether each strain was grown, and a diameter of a growth inhibition zone, which had been formed around the disk, was measured."}, "[1]": {"tested_on": "Colistin-susceptible Acinetobacter", "test": "Growth of strain on protamine-containing medium, ACB-S", "assay_type": "cell-based, Acinetobacter calcoaceticus-baumannii complex", "method": "as §1"}, "[2]": {"tested_on": "Colistin-resistant Acinetobacter", "test": "Growth of strain on protamine-containing medium, ACB-R", "assay_type": "cell-based, Acinetobacter calcoaceticus-baumannii complex", "method": "as §1"}, "[3]": {"tested_on": "mcr-1-harboring Enterobacter aerogenes strain", "test": "Growth of strain on protamine-containing medium, mcr-1", "assay_type": "cell-based", "method": "as §1"}}, "note": "Structures can show the parent of a compound that is named as a salt."}
{"compound": "N=C(N)N", "note": "[guanidine hydrochloride]", "values": [{"measurement": "growth of the strain", "setting": "ABA, KPN and PAE strains", "result": "not inhibited"}]}
{"compound": "protamine", "values": [{"measurement": "Growth", "setting": "PAE ATCC 27853; 30% agar, protamine 50 μg/ml", "result": "Grown"}, {"measurement": "Growth", "setting": "PAE ATCC 27853; 30% agar, protamine 100 μg/ml", "result": "Grown"}, {"measurement": "Growth", "setting": "PAE ATCC 27853; 30% agar, protamine 150 μg/ml", "result": "Grown"}, {"measurement": "Growth", "setting": "PAE ATCC 27853; 30% agar, protamine 200 μg/ml", "result": "Grown"}, {"measurement": "Growth", "setting": "PAE ATCC 27853; 100% agar, protamine 50 μg/ml", "result": "Grown"}, {"measurement": "Growth", "setting": "PAE ATCC 27853; 100% agar, protamine 100 μg/ml", "result": "Grown"}, {"measurement": "Growth", "setting": "PAE ATCC 27853; 100% agar, protamine 150 μg/ml", "result": "Grown"}, {"measurement": "Growth", "setting": "PAE ATCC 27853; 100% agar, protamine 200 μg/ml", "result": "Grown"}, {"measurement": "Growth", "setting": "PAE ATCC 27853; 100% agar, protamine 300 μg/ml", "result": "Grown"}, {"measurement": "Growth", "setting": "PAE ATCC 27853; 100% agar, protamine 400 μg/ml", "result": "Grown"}, {"measurement": "Growth", "setting": "[1]; 30% agar, protamine 50 μg/ml", "result": "Grown"}, {"measurement": "Growth", "setting": "[1]; 30% agar, protamine 100 μg/ml", "result": "Grown"}, {"measurement": "Growth", "setting": "[1]; 30% agar, protamine 150 μg/ml", "result": "Grown"}, {"measurement": "Growth", "setting": "[1]; 100% agar, protamine 50 μg/ml", "result": "Grown"}, {"measurement": "Growth", "setting": "[1]; 100% agar, protamine 100 μg/ml", "result": "Grown"}, {"measurement": "Growth", "setting": "[1]; 100% agar, protamine 150 μg/ml", "result": "Grown"}, {"measurement": "Growth", "setting": "[1]; 100% agar, protamine 200 μg/ml", "result": "Grown"}, {"measurement": "Growth", "setting": "[1]; 100% agar, protamine 300 μg/ml", "result": "Grown"}, {"measurement": "Growth", "setting": "[1]; 100% agar, protamine 400 μg/ml", "result": "Grown"}, {"measurement": "Growth", "setting": "[1]; 100% agar, protamine 700 μg/ml", "result": "Grown"}, {"measurement": "Growth", "setting": "[2]; 30% agar, protamine 50 μg/ml", "result": "Grown"}, {"measurement": "Growth", "setting": "[2]; 30% agar, protamine 100 μg/ml", "result": "Grown"}, {"measurement": "Growth", "setting": "[2]; 30% agar, protamine 150 μg/ml", "result": "Grown"}, {"measurement": "Growth", "setting": "[2]; 100% agar, protamine 50 μg/ml", "result": "Grown"}, {"measurement": "Growth", "setting": "[2]; 100% agar, protamine 100 μg/ml", "result": "Grown"}, {"measurement": "Growth", "setting": "[2]; 100% agar, protamine 150 μg/ml", "result": "Grown"}, {"measurement": "Growth", "setting": "[2]; 100% agar, protamine 200 μg/ml", "result": "Grown"}, {"measurement": "Growth", "setting": "[2]; 100% agar, protamine 300 μg/ml", "result": "Grown"}, {"measurement": "Growth", "setting": "[2]; 100% agar, protamine 400 μg/ml", "result": "Grown"}, {"measurement": "Growth", "setting": "[3]; 30% agar, protamine 50 μg/ml", "result": "Grown"}, {"measurement": "Growth", "setting": "[3]; 30% agar, protamine 100 μg/ml", "result": "Grown"}, {"measurement": "Growth", "setting": "[3]; 30% agar, protamine 150 μg/ml", "result": "Grown"}, {"measurement": "Growth", "setting": "[3]; 30% agar, protamine 200 μg/ml", "result": "Grown"}, {"measurement": "Growth", "setting": "[3]; 100% agar, protamine 50 μg/ml", "result": "Grown"}, {"measurement": "Growth", "setting": "[3]; 100% agar, protamine 100 μg/ml", "result": "Grown"}, {"measurement": "Growth", "setting": "[3]; 100% agar, protamine 150 μg/ml", "result": "Grown"}, {"measurement": "Growth", "setting": "[3]; 100% agar, protamine 200 μg/ml", "result": "Grown"}, {"measurement": "Growth", "setting": "[3]; 100% agar, protamine 300 μg/ml", "result": "Grown"}, {"measurement": "Growth", "setting": "[3]; 100% agar, protamine 400 μg/ml", "result": "Grown"}, {"measurement": "Growth", "setting": "[3]; 100% agar, protamine 700 μg/ml", "result": "Grown"}]}
